Article PMC9686514, “Design of Antimicrobial Peptides with Cell-Selective Activity and Membrane-Acting Mechanism against Drug-Resistant Bacteria” (Antibiotics, 2022)
Where no end group is shown, it is not given here.

Tests used:
Format in all cases: cell-based
[1] = system: Listeria monocytogenes (KCTC 3710); details: KCTC 3710, 24 h, pH 7.2
Excerpt: (§1) Pseudomonas aeruginosa (ATCC 15692), Escherichia coli (ATCC 25922), and Staphylococcus aureus (ATCC 25923) were purchased from the American Type Culture Collection. Listeria monocytogens (KCTC 3710) and Bacillus subtilis (KCTC 1998) were from the Korean Collection for Type Cultures. Drug-resistant S. aureus (DRSa-001~005) and P. aeruginosa (DRPa-001~005) were collected from Paik Hospital of Inje University in Busan, South Korea. Pre-cultured bacteria grown to mid-log phase were suspended in 10 mM sodium phosphate (SP, pH 7.2) or phosphate-buffered saline (PBS, pH 7.2) with 10% culture media. Bacterial suspensions were added to each peptide dilute (final 5 × 10^5 colony-forming units (cfu)/mL), after which the plates were incubated at 37 °C for 24 h. The turbidity of each well was measured at the absorbance at 600 nm and the morphology of bacterial growth was observed under light microscopy. MICs (Minimum inhibitory concentrations) were defined as the lowest concentration of peptide that expresses the complete inhibition of bacterial growth.

[2] = system: Escherichia coli (ATCC 25922); details: ATCC 25922, 24 h, pH 7.2
Excerpt: as §1

[3] = system: Pseudomonas aeruginosa (ATCC 15692); details: ATCC 15692, 24 h, pH 7.2
Excerpt: as §1

[4] = system: Staphylococcus aureus (ATCC 25923); details: ATCC 25923, 24 h, pH 7.2
Excerpt: as §1

[5] = system: Bacillus subtilis (KCTC 1998); details: KCTC 1998, 24 h, pH 7.2
Excerpt: as §1

rat red blood cells = assay: Hemolysis; details: 6.25 µM; 8% (v/v) rat RBCs in PBS, 1 h, 37 °C, absorbance 414 nm
Protocol: Fresh rat erythrocytes were collected and washed by centrifugation at 1000× g for 10 min with PBS. The rat RBCs (8% (v/v)) were added in a two-fold serially diluted peptide with PBS, followed by incubation for 1 h at 37 °C. After centrifugation of samples at 1000× g for 10 min, the supernatants were collected and their absorbance was measured at 414 nm. The 8% RBCs dissolved in PBS and RBCs treated with Triton X-100 were considered as the negative and positive controls, respectively. The hemolysis activity was calculated using the formula, % hemolysis = [(Abssample − Absnegative)/(Abspositive − Absnegative)] × 100 [43, 44].

[6] = system: HaCaT (human keratinocyte) cells; assay: Cytotoxicity (MTT); details: 200 µM, 24 h, 37 °C
Protocol: To examine the cytotoxic effect of peptides, HaCaT (human keratinocyte) cells were sub-cultured in Dulbecco’s modified Eagle medium (DMEM) containing 10% fetal bovine serum, 100 µg/mL streptomycin, and 100 U/mL penicillin at 37 °C in a 5% CO2 chamber. The cells seeded into 4 × 10^3 cells/well were incubated for 24 h. Peptide solutions diluted with DMEM were incubated with cells for 24 h at 37 °C. 3-(4,5-Dimethyl-2-thiazolyl)-2,5-diphenyltetrazolium Bromide (MTT) solution was added to the cells, followed by additional incubation for 4 h. After removing the media, 200 µL of dimethyl sulfoxide was added to the wells. Absorbance of each well was measured at 570 nm using a microtiter reader (Molecular Devices Emax, CA, USA).

Compound	MIC, Lm [1]	MIC, Lm (numbers in parentheses) [1]	MIC, Ec [2]	MIC, Ec (numbers in parentheses) [2]	MIC, Pa [3]	MIC, Pa (numbers in parentheses) [3]	MIC, Sa [4]	MIC, Sa (numbers in parentheses) [4]	MIC, Bs [5]	MIC, Bs (numbers in parentheses) [5]	Hemolytic effect (rat red blood cells)	Cell survival [6]
WIKKIWKKIIKEIK-NH2 [WIKE-14]	4 µM	8 µM	4 µM	64 µM	8 µM	32 µM	16 µM	128 µM	2 µM	8 µM		
WIKKIWKKIK-NH2 [WIK-10]	2 µM	16 µM	8 µM	32 µM	8 µM	32 µM	8 µM	64 µM	2 µM	8 µM		
WIRRIWRRIR-NH2 [WIR-10]	2(2) μM	2(2) μM	2 µM	4 µM	4 µM	8 µM	4 µM	8 µM	1(1) μM	1(1) μM		
KKIIKKIWKW-NH2 [KIW-10]	4 µM	128 µM	8 µM	64 µM	16 µM	64 µM	16 µM	128 µM	4 µM	32 µM		
KKIWKKWIKI-NH2 [KWI-10]	2 µM	64 µM	8 µM	64 µM	16 µM	64 µM	16 µM	128 µM	2 µM	32 µM		
KKIIKKIIKKIWKW-NH2 [KIW-14]	0.5 µM	1 µM	4(4) μM	4(4) μM	2(2) μM	2(2) μM	4 µM	8 µM	1 µM	2 µM		
RRIWRRWIRI-NH2 [RWI-10]	2 µM	8 µM	2 µM	4 µM	16 µM	32 µM	8 µM	16 µM	1 µM	4 µM		
RRIIRRIWRW-NH2 [RIW-10]	2 µM	8 µM	8 µM	16 µM	16 µM	32 µM	8 µM	16 µM	2 µM	4 µM		
KKIWKKWIKKIIKI-NH2 [KWI-14]	0.5 µM	1 µM	4(4) μM	4(4) μM	2(2) μM	2(2) μM	4 µM	8 µM	1 µM	2 µM		
WIKKIWKKIIKKIK-NH2 [WIK-14]	0.5 µM	1 µM	4(4) μM	4(4) μM	2(2) μM	2(2) μM	2((2) μM	2((2) μM	1(1) μM	1(1) μM		
CC[C@H](C)[C@H](NC(=O)CN)C(=O)NCC(=O)N[C@@H](C)C(=O)N[C@H](C(=O)N[C@@H](CC(C)C)C(=O)N[C@@H](CCCCN)C(=O)N[C@H](C(=O)N[C@@H](CC(C)C)C(=O)N[C@H](C(=O)N[C@H](C(=O)NCC(=O)N[C@@H](CC(C)C)C(=O)N1CCC[C@H]1C(=O)N[C@@H](C)C(=O)N[C@@H](CC(C)C)C(=O)N[C@H](C(=O)N[C@@H](CO)C(=O)N[C@@H](Cc1c[nH]c2ccccc12)C(=O)N[C@H](C(=O)N[C@@H](CCCCN)C(=O)N[C@@H](CCCNC(=N)N)C(=O)N[C@@H](CCCCN)C(=O)N[C@@H](CCCNC(=N)N)C(=O)N[C@@H](CCC(N)=O)C(=O)N[C@@H](CCC(N)=O)C(N)=O)[C@@H](C)CC)[C@@H](C)CC)[C@@H](C)O)[C@@H](C)O)C(C)C)C(C)C [Melittin]											strong hemolytic effect	less than 20%
